Data as given in US20230218539A1, “TRANSDERMAL THERAPEUTIC SYSTEM COMPRISING THE INGREDIENT ROTIGOTINE AND AT LEAST ONE NON-AMINE-RESISTANT SILICONE ADHESIVE” (Luye Pharma Switzerland AG, priority 2020, published 2023).

Key:
[1] = Solubility of rotigotine in matrix components; format: physicochemical
[2] = as described in WO 2009/068520; cited from earlier work

Row | Solubility in a crystallization inhibitor such as polyvinylpyrrolidone [1] | Solubility in silicone adhesives [1] | SMILES | Thermodynamic stability of the polymorphic form [2]
1 | good soluble | very poorly soluble | CCCN(CCc1cccs1)[C@H]1CCc2c(O)cccc2C1 [Rotigotine] | 
2 |  |  | CCCN(CCc1cccs1)[C@H]1CCc2c(O)cccc2C1 [polymorphic form II] | thermodynamically more stable than the polymorphic form I
